17 compounds from PubChem BioAssay (NCI) can be followed below.

The structures appear in SMILES notation. Several values for one entry are separate records, joined by “and”; a condition that tells them apart may be missing. Equal entries are not always repeated.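 Exposure lasted 48 hours, with cells grown in 96-well plates and compounds tested at five concentrations. GI50 marks 50% less growth. At the TGI there is no net growth.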

What all share (assay): growth of human tumour cells (NCI), 48 h
Assay [1] deals with BT-549 breast.
Assay [2] deals with CAKI-1 renal.
For assay [3], the system named is HL-60(TB) leukemia.
Assay [4] has as its system KM12 colon.
The subject of assay [5] is LOX IMVI melanoma.
Assay [6] concerns PC-3 prostate.
For assay [7], the system named is RXF 393 renal.
Assay [8] has as its system SF-295 CNS.
Assay [9] relates to SK-OV-3 ovarian.
The subject of assay [10] is SNB-19 CNS.

For `C/C(=N/Nc1nc2ccccc2n1C)c1ccccn1`, the GI50 in [1] was 0.223 µM; in assay [2] it was 0.104 µM; in assay [3], 0.0177 µM; in assay [4], 0.202 µM; in [5], 0.0514 µM; in assay [6], 0.0369 µM. The GI50 was 0.169 µM in assay [7], 0.28 µM in assay [8], 0.113 µM in [9] and 0.327 µM in [10]. The TGI in assay [1] stood at 25.5 µM; in assay [2] it was 2.14 µM; in assay [3] it was 0.391 µM; in [4], 20.7 µM; in assay [5], 11.4 µM; in assay [6], 36 µM. Further, the TGI in assay [7] is 3.24 µM; in [8], 4.97 µM; in assay [9], 5.93 µM; in assay [10], more than 100 µM.
Turning to `C#CCC(Cc1cnc2nc(N)nc(N)c2n1)c1ccc(C(=O)N[C@@H](CCC(=O)O)C(=O)O)cc1` (some centres not stated), the GI50 in assay [1] was more than 100 µM; in assay [2], less than 0.01 µM; in [3] it was less than 0.01 µM; in assay [4] it was less than 0.01 µM; in assay [5], less than 0.01 µM; in [6], less than 0.01 µM. Also, the GI50 in assay [7] is less than 0.01 µM; in [8], less than 0.01 µM; in [9], less than 0.01 µM; in [10] it was less than 0.0131 µM. Moreover, the TGI in assay [1], in assay [2], in assay [3], in [4], in assay [5] and in assay [6] was more than 100 µM in each case. The TGI in [7], in assay [8], in assay [9] and in assay [10] was more than 100 µM throughout.
Regarding `CCC(CO)Nc1nc(NCc2ccccc2O)c2ncn(C(C)C)c2n1` (configuration not stated), the GI50 in assay [1] was 2.76 µM; in assay [2] it was 15.6 µM; in assay [3], 2.08 µM; in assay [4] it was 3.92 µM; in [5] it was 2.63 µM; in assay [6], 5.67 µM. Also, the GI50 in assay [7] was 3.29 µM; in assay [8], 2.95 µM; in [9] it was 5.95 µM; in assay [10], 3.3 µM. The TGI was more than 100 µM in [1]; 63.4 µM in assay [2]; 4.58 µM in assay [3]; more than 100 µM in assay [4]; more than 100 µM in [5]; 30.8 µM in assay [6]. Besides, the TGI in [7] was more than 100 µM; in assay [8], 8.03 µM; in [9] it was 41 µM; in assay [10], 76 µM.
`CC(=O)[C@@]1(O)CC[C@H]2[C@@H]3C[C@H](C)C4=CC(=O)CC[C@]4(C)[C@H]3[C@@H](O)C[C@@]21C`: the TGI in assay [1], in [2], in assay [3], in assay [4], in assay [5] and in [6] was more than 100 µM in each case. Moreover, the TGI in assay [7], in assay [8], in assay [9] and in assay [10] was more than 100 µM throughout.
Turning to `O=c1nc2n(-c3ccc(Cl)cc3)c3ccc([N+](=O)[O-])cc3cc-2c(=O)[nH]1`, the GI50 was 13.6 µM in [1]; 21.5 µM in [2]; 9.55 µM in assay [3]; 5.06 µM in assay [4]; 4.87 µM in [5]; 23.5 µM in assay [6]. The GI50 is 18.8 µM in assay [7], 19.8 µM in assay [8], 41.7 µM in assay [9] and 17.8 µM in [10]. The TGI was 46.2 µM in [1]; 60.1 µM in assay [2]; more than 100 µM in [3]; 20 µM in assay [4]; 21.7 µM in assay [5]; 78.5 µM in assay [6]. Also, the TGI in [7] is more than 100 µM; in assay [8] it was 47.1 µM; in [9], more than 100 µM; in assay [10], 83.3 µM.
Turning to `CCOC(=O)c1[nH]c(Br)c(-c2ccc(Br)cc2)c1Br`, the GI50 in assay [1] was 8.52 µM; in [2] it was 0.49 µM; in [3], 0.207 µM; in assay [4], 0.302 µM; in assay [5], 0.641 µM; in [6], 1.25 µM. The GI50 in assay [8] was 0.145 µM; in [9] it was 0.967 µM; in assay [10] it was 0.454 µM. The TGI in [2] is 3.06 µM and 2.62 µM; in assay [3], 0.596 µM; in [4] it was 16 µM; in [5] it was 5.29 µM and 12.4 µM; in assay [6], 15.5 µM; in assay [7] it was 8.14 µM. Also, the TGI in assay [8] is 0.763 µM and 0.815 µM; in [9] it was 6.28 µM; in [10], 10.4 µM.
`Cc1ccccc1N=Nc1ccc(NC(=O)c2ccnn2C)c(C)c1`: the GI50 in assay [1] was 8.53 µM; in assay [2], 55.4 µM; in [4] it was more than 100 µM; in assay [5], 72.2 µM; in assay [6], 92.7 µM; in assay [7] it was 18.5 µM. Besides, the values for the GI50 in assay [8], in [9] and in assay [10] were 23.9 µM, 24 µM and 24.4 µM, respectively. Further, the TGI is more than 100 µM in assay [1]; more than 100 µM in [2]; more than 100 µM in assay [4]; more than 100 µM in assay [5]; more than 100 µM in assay [6]; 47.2 µM in assay [7]. Also, the TGI in [8], in [9] and in assay [10] was more than 100 µM throughout.
On to `C=C1C(=O)O[C@H]2[C@H]1CC/C(Cn1cc(-c3cc(C(F)(F)F)cc(C(F)(F)F)c3)nn1)=C\CC[C@@]1(C)O[C@@H]21`, for which the GI50 in assay [1] was 0.178 µM; in [3], 0.19 µM; in assay [4], 1.04 µM; in [5], 0.156 µM; in [6] it was 0.832 µM; in [7], 0.0274 µM. Moreover, the values for the GI50 in [8], in [9] and in assay [10] were 1.19 µM, 1.86 µM and 1.71 µM, respectively. Also, the TGI was found to be 0.509 µM in assay [1]; 0.484 µM in [3]; 2.53 µM in [4]; 0.298 µM in assay [5]; 2.33 µM in assay [6]; 0.102 µM in assay [7]. In addition, the TGI is 2.53 µM in [8], 3.43 µM in assay [9] and 3.58 µM in assay [10].
As for `Cc1ccc(/C=C2/SC(Nc3nc(-c4csc(NC5=NC(=O)/C(=C\c6ccc(C)cc6)S5)n4)cs3)=NC2=O)cc1`, the GI50 was 11.1 µM in [2]; 2.03 µM in assay [3]; 3.47 µM in [4]; 6.52 µM in [6]; 23.8 µM in assay [7]; 6.66 µM in assay [8]. The GI50 in [10] was 12.6 µM. The TGI in [2] was more than 50 µM; in assay [3], 29.9 µM; in assay [4], more than 50 µM; in [6] it was more than 50 µM; in [7], more than 50 µM; in assay [8] it was more than 50 µM. The compound further returned a TGI in assay [10] of more than 50 µM.
For the compound `COc1cc2c3c(n(CCCN)c(=O)c2cc1OC)-c1cc2c(cc1/C3=C\CCN)OCO2`, the GI50 in [2] is 23.6 µM; in assay [3], 9.09 µM; in [4], 2.6 µM; in assay [5], 1.7 µM; in assay [6], 4.43 µM; in [7], 4.41 µM. Besides, the GI50 is 3.33 µM in assay [8], 6 µM in assay [9] and 3.46 µM in assay [10]. The TGI is more than 100 µM in [2]; more than 73.9 µM in assay [3]; more than 21.8 µM in [4]; 17.8 µM in assay [6]; 14.8 µM in assay [7]; 44.2 µM in assay [9]. The same compound showed a TGI in [10] of more than 30.9 µM.
As for `O=C1/C(=C/c2ccccc2)CN(C(=O)c2cccnc2)C/C1=C\c1ccccc1`, the GI50 in assay [2] is 2.83 µM; in [3] it was 2.34 µM; in assay [4], 0.271 µM; in assay [5], 0.21 µM; in [6] it was 1.44 µM; in assay [7], 1.72 µM. For the same compound, the GI50 was 1.79 µM in [8], 3.52 µM in assay [9] and 1.49 µM in assay [10]. Also, the TGI amounted to 10.3 µM in assay [2]; 11.5 µM in assay [3]; 0.765 µM in assay [4]; 0.483 µM in assay [5]; 4.81 µM in assay [6]; 3.3 µM in assay [7]. Besides, the TGI came to 4.23 µM in assay [8], 11.6 µM in [9] and 10.8 µM in assay [10].
For the compound `O=C1C(Cl)=C(Nc2cccc(Cl)c2)C(=O)N1Cc1ccccc1Cl`, the GI50 is 4.31 µM in [1]; 1.68 µM in assay [2]; 3.15 µM in assay [3]; 10.7 µM in [4]; 1.64 µM in assay [5]; 4.8 µM in [6]. Moreover, the results for the GI50 in assay [7] and in assay [8] were 1.26 µM and 0.476 µM, respectively. The TGI in assay [1] stood at 26 µM; in [2], 10.3 µM; in [3], 19.6 µM; in [4], 49.6 µM; in assay [5], 3.76 µM; in assay [6] it was 21.3 µM. Also, the TGI in assay [7] worked out at 6.53 µM; in assay [8] it was 20.9 µM.
With `O=c1ccn(C2OC(CO/N=C/c3ccc(O)c(O)c3O)C(O)C2O)c(=O)[nH]1` (configuration not stated), the GI50 is 68.4 µM in assay [1]; 49.7 µM in assay [2]; 26.9 µM in [3]; 35.4 µM in assay [4]; 16.1 µM in assay [5]; 25.1 µM in [6]. Moreover, the GI50 in assay [7] was 23 µM; in assay [8] it was 10.5 µM; in assay [9], 27.2 µM. The TGI is more than 100 µM in [1]; more than 100 µM in assay [2]; 68.1 µM in assay [3]; more than 100 µM in assay [4]; 32.2 µM in [5]; 86.9 µM in [6]. The TGI in [7] worked out at 73.9 µM; in assay [8] it was 24.1 µM; in assay [9], 89 µM.
For `COc1c(OC)c(OC)c2c(c1OC)c(=O)c1ccccc1n2C`, the TGI in [1], in assay [2], in assay [3], in assay [4], in assay [5] and in [6] was more than 100 µM throughout. The TGI in assay [8], in assay [9] and in assay [10] was more than 100 µM each time.
On to `O=C(Nc1cc(Cl)cc(Cl)c1)c1ccc(NC2=C(Cl)C(=O)N(Cc3ccc(Cl)cc3Cl)C2=O)cc1`, for which the GI50 in [1] was 1.57 µM; in [2], 36.8 µM; in assay [4] it was 13.6 µM; in [5], 1.5 µM; in assay [6], 13.1 µM; in assay [7], 29.6 µM. The GI50 was 43.2 µM in assay [8], 55.3 µM in assay [9] and 21.4 µM in assay [10]. Besides, the TGI was 7.22 µM in assay [1]; more than 100 µM in assay [2]; 47.7 µM in assay [4]; 4.19 µM in assay [5]; 25.8 µM in [6]; more than 100 µM in [7]. The TGI in [8] is more than 100 µM; in assay [9] it was more than 100 µM; in [10], 83.4 µM.
On to `O=C1c2cc3c(cc2-c2c1c1ccc(Cl)cc1c(=O)n2CCCNCCO)OCO3`, for which the GI50 in assay [1] was 0.941 µM; in assay [2] it was 0.0684 µM; in assay [3], 0.0367 µM; in [4] it was 1.17 µM; in [5], 0.0467 µM; in [6] it was 1.07 µM. Besides, the GI50 in assay [7] was 0.926 µM; in assay [8], 0.0378 µM; in assay [9], 0.212 µM. Besides, the TGI was determined as 2.49 µM in assay [1]; 2.29 µM in assay [2]; 1.08 µM in assay [3]; 2.61 µM in [4]; 1.3 µM in assay [5]; 2.55 µM in assay [6]. In addition, the TGI in [7] was 2.59 µM; in assay [8], 1.38 µM; in assay [9] it was 1.74 µM.
Consider `Fc1ccc2c(c1)c(-c1nc(-c3c[nH]c4ncccc34)cs1)cn2CCCN1CCCCC1`, for which the GI50 in [1] was 3.72 µM; in assay [6], 1.69 µM; in [9], 1.81 µM. Moreover, the TGI in [1] turned out to be 14.5 µM; in assay [6] it was 3.2 µM; in [9], 3.43 µM.
